Assay [1] relates to AII-1 receptor. Nature of the assay: AII receptor antagonism, subtype AII-1, as stated. The conditions noted are these: stated in words, no data.
The subject of assay [2] is male Sprague-Dawley rats (renin-induced amnesia). Nature of the assay: Renin-disrupted passive avoidance retention. The format is in vivo, rat. The conditions noted are these: for effect on renin-induced amnesia (in words): co-administered with renin IVT. The procedure:
Experimentally naive male Sprague-Dawley rats […] (Charles River Breeding Laboratories, Kingston, N.Y.), weighing between 175 to 200 gm were used. The animals were housed four per cage (45.0(L)×20.0(H)×26.0(W) cm) with free access to food and water. They were maintained on a 12 h light/dark cycle (lights on 600 h) and at a room temperature of 22°±1° C. with relative humidity of 50±10%. The experimental sessions were conducted in a two-compartment passive avoidance box. One compartment, made of clear plastic with a perforated clear plastic floor, measured 21(L)×24.5(H)×17(W) cm and was illuminated with a 60 watt incandescent light bulb placed 36 cm above the floor. The other compartment, made of black plastic, measured 30.5(L)×20.3(H)×21.5(W) cm with a floor made of 4 mm stainless steel rods spaced 1.2 cm apart. A grid floor shocker (Coulbourn Instruments) was connected to the steel rods and provided scrambled footshock. The two compartments were separated by a solenoid-operated slide door (Lafayette Instrument Co., Lafayette, Ind.). An electronic counter (Coulbourn Instruments), triggered by the opening or closing of the slide door, recorded acquisition and retention latencies (latencies were defined as the time it took an animal to enter the dark compartment). Passive avoidance training began by placing the rat into the clear compartment of the two-compartment passive avoidance box. Following a 10 sec delay, the slide door to the dark compartment was raised. Once the rat moved completely into the dark compartment (all four paws on the shock grid floor) the slide door was lowered, and after a 10 sec delay, a 1.0 mA shock was applied to the grid floor for three sec. A second three sec shock was delivered after an additional 10 sec delay. The rats were immediately removed from the dark compartment and returned to their home cage. A retention test was given 24 h later. It proceeded in the same manner as the training session except that no shock was applied to the grid floor when the rats were provided access to the dark compartment for a maximum of 300 sec. […] All drugs were administered IVT 60 minutes prior to acquisition training in a volume of 5 μl. Doses are expressed as the free base weight of each compound.

Assay [3] relates to release of ACh in entorhinal cortex from rat brain. The note with it: in vitro; Barnes et al. 1989; cited from earlier work.
For assay [4], the system named is retention of a passive avoidance (PA) response in rats. The conditions noted are these: injected into dorsal neostriatum; Morgan and Routtenberg 1977; cited from earlier work.
Assay [5] has as its system AII receptor subtype-1 (AII-1). The note with it: rat adrenal cortex; cited from earlier work.
The subject of assay [6] is AII-2 receptors in the brain. In words: Binding of AII antagonists to brain slices, AII-2 sites. The conditions noted are these: majority of binding sites.
For assay [7], the system named is AII receptor subtype-2 (AII-2). The note with it: rat adrenal cortex; cited from earlier work.
In assay [8] the test system is AII-1 receptors in the brain. In words: Binding of AII antagonists to brain slices, AII-1 sites. The note with it: clusters of AII-1 sites.
Assay [9] relates to memory of previously learned tasks. The conditions noted are these: EP 288,907; cited from earlier work.
Assay [10] relates to eight arm radial maze performance in rats. The note with it: 3 mg/kg IP; Usinger et al. 1988; cited from earlier work.
Assay [11] deals with AII in cerebrospinal fluid (CSF). The note with it: renin into lateral ventricle; AII increased from 40; Koller et al. 1975; cited from earlier work.

“Also recorded” adds a separate entry of the source. Structures can show the parent of a compound that is named as a salt.

As to `CCCc1nc(C(F)(F)F)c(CO)n1Cc1ccc(-c2ccccc2-c2nn[nH]n2)cc1` [Compound D, sodium salt of 2-n-propyl-5-hydroxymethyl-1-[(2'-(1H-tetrazol-5-yl)biphenyl-4-yl)methyl]-4-trifluoromethylimidazole], in assay [1], the AII-1 receptor antagonism entry was “AII-1 receptor antagonists”. Besides, the “effect on renin-induced amnesia (in words)” value (“effect … (in words)” below) in assay [2] is “protected against the amnesia”.

For the molecule “AII: Angiotensin-II, circulating hormone thought to act as a neuropeptide in the CNS (DRVYIHPF; Angiotensin-2; UniProt P01019 25-32, looked up)”, the “effect on basal ACh levels” value in assay [3] was “without effects on basal levels”. For the same molecule, in assay [4], the “effect on retention of PA response” value was “disruption in retention of a PA response”.

In the case of `CCCc1nc(C(F)(F)F)c(C(=O)O)n1Cc1ccc(-c2ccccc2-c2nn[nH]n2)cc1` [Compound C, sodium salt of 2-n-propyl-1-[(2'-(1H-tetrazol-5-yl)biphenyl-4-yl)methyl]-4-trifluoromethylimidazole-5-carboxylic acid], the AII-1 receptor antagonism entry in assay [1] was “AII-1 receptor antagonists”. The “effect … (in words)” value in [2] is listed as “protected against the amnesia”.

As to `O[C@H](CS)[C@H](O)CS` (racemic) [DTT, dithiothreitol], in assay [5], the “sensitivity of AII-1 receptor to inactivation by DTT” value is on record as “particularly sensitive to inactivation”. In assay [6], the “sensitivity of AII-2 binding sites in brain” value is on record as “DTT-insensitive”. The “sensitivity of AII-2 receptor to inactivation by DTT” value in assay [7] was “resistant to DTT inactivation”. Moreover, the “sensitivity of AII-1 binding sites in brain” value in assay [8] is “DTT-sensitive”.

Take lysine-8-vasopressin: in [4], the “effect on retention of PA response” value is “no effect”.

As for “[1-sarcosine, 8-threonine]angiotensin-II”, the “effect on AII-induced reduction of ACh release” value in assay [3] was “antagonized”.

Consider `NCCCC[C@H](OP(=O)(O)CCCCc1ccccc1)C(=O)N1CCC[C@H]1C(=O)O` [SQ 29852], for which the “effect on an anticholinergic effect on performance” value in assay [9] was “ameliorate, at least in part”.

Consider `C[C@H](CS)C(=O)N1CCC[C@H]1C(=O)O` [captopril], for which the “effect … (in words)” value in assay [2] is on record as “prevented”.

Turning to “AI: AI, compared with AII in ACh release (DRVYIHPFHL; Angiotensin-1; UniProt P01019 25-34, looked up)”, the “effect on potassium-stimulated release of ACh” value in assay [3] is reported as “not AI”.

As for `Cc1cc(Cn2cnc3c2CC(C(=O)O)N(C(=O)C(c2ccccc2)c2ccccc2)C3)ccc1N` (stereo not drawn) [EXP655, 1-(4-amino-3-methylphenyl)methyl-5-diphenylacetyl-4,5,6,7-tetrahydro-1H-imidazo[4,5-c]pyridine-6-carboxylic acid], the “sensitivity of AII-2 binding sites in brain” value in assay [6] is reported as “EXP655-sensitive”. In addition, the “effect … (in words)” value in assay [2] is “much less effective in preventing the amnesia”.

As for `CCOC(=O)C(CCc1ccccc1)NC(C)C(=O)N1CC2(CC3CCC2CC3)CC1C(=O)O` (stereo not drawn) [Hoe 288], the “effect on muscarinic receptor blockade on performance” value in assay [10] is on record as “partially antagonized the effects of muscarinic receptor blockade on performance”.

Regarding `NC(=O)[C@@H]1CCCN1C(=O)[C@H](Cc1cnc[nH]1)NC(=O)[C@@H]1CCC(=O)N1` [thyrotropin releasing hormone], the “effect on retention of PA response” value in assay [4] is reported as “no effect”.

B1: renin: Renin (Sigma Chemicals), a stimulator of endogenous AII biosynthesis (protein, UniProt P00797 67-406, looked up)
Renin: LTLGNTTSSVILTNYMDTQYYGEIGIGTPPQTFKVVFDTGSSNVWVPSSKCSRLYTACVYHKLFDASDSSSYKHNGTELTLRYSTGTVSGFLSQDIITVGGITVTQMFGEVTEMPALPFMLAEFDGVVGMGFIEQAIGRVTPIFDNIISQGVLKEDVFSFYYNRDSENSQSLGGQIVLGGSDPQHYEGNFHYINLIKTGVWQIQMKGVSVGSSTLLCEDGCLALVDTGASYISGSTSSIEKLMEALGAKKRLFDYVVKCNEGPTLPDISFHLGGKEYTLTSADYVFQESYSSKKLCTLAIHAMDIPPPTGPTWALGATFIRKFYTEFDRRNNRIGFALAR
For B1, the “memory deficit / amnesia produced by renin (in words)” value in assay [2] (IVT, passive avoidance) is reported as “produces a reliable memory deficit in rats; also recorded: dose-related amnesia in a PA task”. Further, in assay [11], the “AII in CSF after renin” value is on record as “about 5000 fmol per mL”.

Values taken from US5179113A, “Treatment of central nervous disorders with imidazole compounds” (E. I. Du Pont de Nemours and Company, priority 1991, dated 1993).
